From ChEMBL document CHEMBL1201862, “PubChem BioAssay data set” (2004)
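Protocol summary: plate cells (96-well), add compound at 5 concentrations, incubate 48 h, interpolate endpoints linearly. GI50 marks 50% less growth.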 Calls of active or inactive are those of the source. Cut-off read from the data, not from the text of the source: active = GI50 up to about 1.1 µM and inactive = higher.

Columns and labels:
Assay in all cases: NCI-60 cell line screen, 48 h
EKVX = system: EKVX
MDA-MB-435 = system: MDA-MB-435
SW-620 = system: SW-620
CAKI-1 = system: CAKI-1
KM12 = system: KM12
HOP-62 = system: HOP-62
MOLT-4 = system: MOLT-4
OVCAR-3 = system: OVCAR-3
U-251 = system: U-251
ACHN = system: ACHN
RPMI-8226 = system: RPMI-8226
NCI-H522 = system: NCI-H522
MDA-MB-231 = system: MDA-MB-231
PC-3 = system: PC-3
SK-MEL-5 = system: SK-MEL-5
SN12C = system: SN12C
CCRF-CEM = system: CCRF-CEM
K562 = system: K562

O=C(O)CC1(CC(=O)O)Nc2ccccc2SC1=O
GI50 (EKVX): > 100 µM (inactive) | GI50 (MDA-MB-435): > 100 µM (inactive) | GI50 (SW-620): > 100 µM (inactive) | GI50 (CAKI-1): > 100 µM (inactive) | GI50 (KM12): > 100 µM (inactive) | GI50 (HOP-62): > 100 µM (inactive) | GI50 (MOLT-4): > 100 µM (inactive) | GI50 (OVCAR-3): > 100 µM (inactive) | GI50 (U-251): > 100 µM (inactive) | GI50 (ACHN): > 100 µM (inactive) | GI50 (RPMI-8226): > 100 µM (inactive) | GI50 (NCI-H522): > 100 µM (inactive) | GI50 (MDA-MB-231): > 100 µM (inactive) | GI50 (PC-3): > 100 µM (inactive) | GI50 (SK-MEL-5): > 100 µM (inactive) | GI50 (SN12C): > 100 µM (inactive) | GI50 (CCRF-CEM): > 100 µM (inactive) | GI50 (K562): > 100 µM (inactive)

Cc1cc(N)c2cc(NC(=O)Nc3ccc4nc(C)cc(N)c4c3)ccc2n1
GI50 (EKVX): > 100 µM (inactive) | GI50 (MDA-MB-435): > 100 µM (inactive) | GI50 (SW-620): > 100 µM (inactive) | GI50 (CAKI-1): > 100 µM (inactive) | GI50 (KM12): > 100 µM (inactive) | GI50 (HOP-62): 61.8 µM (inactive) | GI50 (MOLT-4): > 100 µM (inactive) | GI50 (OVCAR-3): > 100 µM (inactive) | GI50 (U-251): 70.6 µM (inactive) | GI50 (ACHN): > 100 µM (inactive) | GI50 (RPMI-8226): > 100 µM (inactive) | GI50 (NCI-H522): > 100 µM (inactive) | GI50 (MDA-MB-231): 47.8 µM (inactive) | GI50 (PC-3): > 100 µM (inactive) | GI50 (SK-MEL-5): 70.1 µM (inactive) | GI50 (SN12C): > 100 µM (inactive) | GI50 (CCRF-CEM): > 100 µM (inactive) | GI50 (K562): > 100 µM (inactive)

CN(C)Cc1cc(C(C)(C)C)cc(C2CCCCC2)c1O
GI50 (EKVX): 11.9 µM (inactive) | GI50 (MDA-MB-435): 20.3 µM (inactive) | GI50 (SW-620): 16.6 µM (inactive) | GI50 (CAKI-1): 19.9 µM (inactive) | GI50 (KM12): 13.6 µM (inactive) | GI50 (HOP-62): 18 µM (inactive) | GI50 (MOLT-4): 10.8 µM (inactive) | GI50 (OVCAR-3): 14.2 µM (inactive) | GI50 (U-251): 14.4 µM (inactive) | GI50 (ACHN): 15.5 µM (inactive) | GI50 (RPMI-8226): < 0.01 µM (active) | GI50 (NCI-H522): 20.2 µM (inactive) | GI50 (MDA-MB-231): 13.8 µM (inactive) | GI50 (PC-3): 13.6 µM (inactive) | GI50 (SK-MEL-5): 14.4 µM (inactive) | GI50 (SN12C): 15.7 µM (inactive) | GI50 (CCRF-CEM): 13.5 µM (inactive) | GI50 (K562): 12.2 µM (inactive)

COC(=O)C1=NN2c3ccccc3C(=O)OCCC2C1 (stereo not drawn)
GI50 (EKVX): > 100 µM (inactive) | GI50 (MDA-MB-435): > 100 µM (inactive) | GI50 (SW-620): > 100 µM (inactive) | GI50 (CAKI-1): > 100 µM (inactive) | GI50 (KM12): > 100 µM (inactive) | GI50 (HOP-62): > 100 µM (inactive) | GI50 (MOLT-4): > 100 µM (inactive) | GI50 (OVCAR-3): > 100 µM (inactive) | GI50 (U-251): > 100 µM (inactive) | GI50 (ACHN): > 100 µM (inactive) | GI50 (RPMI-8226): > 100 µM (inactive) | GI50 (NCI-H522): > 100 µM (inactive) | GI50 (MDA-MB-231): > 100 µM (inactive) | GI50 (PC-3): > 100 µM (inactive) | GI50 (SK-MEL-5): > 100 µM (inactive) | GI50 (SN12C): > 100 µM (inactive) | GI50 (CCRF-CEM): > 100 µM (inactive) | GI50 (K562): > 100 µM (inactive)

CN1c2ccccc2C2=C(c3ccccc3)CC[C@@H](C(=O)N3C4CC5CC[C@@]4(CS3(=O)=O)C5(C)C)[C@@H]21 (stereo partly drawn)
GI50 (EKVX): > 100 µM (inactive) | GI50 (MDA-MB-435): > 100 µM (inactive) | GI50 (SW-620): > 100 µM (inactive) | GI50 (CAKI-1): > 100 µM (inactive) | GI50 (KM12): > 100 µM (inactive) | GI50 (HOP-62): > 100 µM (inactive) | GI50 (MOLT-4): 4.58 µM (inactive) | GI50 (OVCAR-3): > 100 µM (inactive) | GI50 (U-251): > 100 µM (inactive) | GI50 (ACHN): > 100 µM (inactive) | GI50 (RPMI-8226): > 100 µM (inactive) | GI50 (NCI-H522): 92.3 µM (inactive) | GI50 (MDA-MB-231): > 100 µM (inactive) | GI50 (PC-3): 4.1 µM (inactive) | GI50 (SK-MEL-5): > 100 µM (inactive) | GI50 (SN12C): > 100 µM (inactive) | GI50 (CCRF-CEM): > 100 µM (inactive) | GI50 (K562): 10.5 µM (inactive)

COc1ccc2nc3cc(Cl)ccc3c(Nc3ccc(O)c(CN4CCN(C)CC4)c3)c2c1
GI50 (EKVX): 1.74 µM (inactive) | GI50 (MDA-MB-435): 1.62 µM (inactive) | GI50 (SW-620): 1.99 µM (inactive) | GI50 (CAKI-1): 1.92 µM (inactive) | GI50 (KM12): 1.91 µM (inactive) | GI50 (HOP-62): 2.06 µM (inactive) | GI50 (MOLT-4): 1.93 µM (inactive) | GI50 (OVCAR-3): 1.92 µM (inactive) | GI50 (U-251): 1.67 µM (inactive) | GI50 (ACHN): 1.64 µM (inactive) | GI50 (RPMI-8226): 1.9 µM (inactive) | GI50 (NCI-H522): 1.78 µM (inactive) | GI50 (MDA-MB-231): 1.52 µM (inactive) | GI50 (PC-3): 1.67 µM (inactive) | GI50 (SK-MEL-5): 1.73 µM (inactive) | GI50 (SN12C): 1.85 µM (inactive) | GI50 (CCRF-CEM): 0.276 µM (active) | GI50 (K562): 1.59 µM (inactive)

CCN(CC)CCN(C)CCc1ccc(Br)cc1
GI50 (EKVX): > 100 µM (inactive) | GI50 (MDA-MB-435): 53.1 µM (inactive) | GI50 (SW-620): 54.8 µM (inactive) | GI50 (CAKI-1): > 100 µM (inactive) | GI50 (KM12): 51.2 µM (inactive) | GI50 (HOP-62): 29.7 µM (inactive) | GI50 (MOLT-4): 53.6 µM (inactive) | GI50 (OVCAR-3): > 100 µM (inactive) | GI50 (U-251): 41.4 µM (inactive) | GI50 (ACHN): > 100 µM (inactive) | GI50 (RPMI-8226): > 100 µM (inactive) | GI50 (NCI-H522): 69.3 µM (inactive) | GI50 (MDA-MB-231): 54.3 µM (inactive) | GI50 (PC-3): 54 µM (inactive) | GI50 (SK-MEL-5): 17.2 µM (inactive) | GI50 (SN12C): > 100 µM (inactive) | GI50 (CCRF-CEM): 51.8 µM (inactive) | GI50 (K562): 25.7 µM (inactive)

Cc1nnc(SCc2nc(C#N)c(C#N)nc2CSc2nnc(C)s2)s1
GI50 (EKVX): 14.7 µM (inactive) | GI50 (MDA-MB-435): 8.63 µM (inactive) | GI50 (SW-620): 3.43 µM (inactive) | GI50 (CAKI-1): 5.74 µM (inactive) | GI50 (KM12): 19.3 µM (inactive) | GI50 (HOP-62): 19.1 µM (inactive) | GI50 (MOLT-4): 2.51 µM (inactive) | GI50 (OVCAR-3): 6.78 µM (inactive) | GI50 (U-251): 18.7 µM (inactive) | GI50 (ACHN): 8.53 µM (inactive) | GI50 (RPMI-8226): 2.93 µM (inactive) | GI50 (NCI-H522): 3.34 µM (inactive) | GI50 (MDA-MB-231): 16.6 µM (inactive) | GI50 (PC-3): 14.8 µM (inactive) | GI50 (SK-MEL-5): 15 µM (inactive) | GI50 (SN12C): 17.3 µM (inactive) | GI50 (CCRF-CEM): 1.98 µM (inactive) | GI50 (K562): 4.37 µM (inactive)

O=C(OCc1ccccc1)C1(N2CN(C3(C(=O)OCc4ccccc4)CCCC3)CN(C3(C(=O)OCc4ccccc4)CCCC3)C2)CCCC1
GI50 (EKVX): > 10 µM (inactive) | GI50 (MDA-MB-435): > 10 µM (inactive) | GI50 (SW-620): > 10 µM (inactive) | GI50 (CAKI-1): > 10 µM (inactive) | GI50 (KM12): > 10 µM (inactive) | GI50 (HOP-62): > 10 µM (inactive) | GI50 (MOLT-4): > 10 µM (inactive) | GI50 (OVCAR-3): > 10 µM (inactive) | GI50 (U-251): > 10 µM (inactive) | GI50 (ACHN): > 10 µM (inactive) | GI50 (RPMI-8226): > 10 µM (inactive) | GI50 (NCI-H522): > 10 µM (inactive) | GI50 (MDA-MB-231): > 10 µM (inactive) | GI50 (PC-3): > 10 µM (inactive) | GI50 (SK-MEL-5): > 10 µM (inactive) | GI50 (SN12C): > 10 µM (inactive) | GI50 (CCRF-CEM): > 10 µM (inactive) | GI50 (K562): > 10 µM (inactive)

c1ccc(/N=C2/SC(c3ccccc3)(c3ccccc3)c3ccccc32)cc1
GI50 (EKVX): > 100 µM (inactive) | GI50 (MDA-MB-435): > 100 µM (inactive) | GI50 (SW-620): > 100 µM (inactive) | GI50 (CAKI-1): > 100 µM (inactive) | GI50 (KM12): > 100 µM (inactive) | GI50 (HOP-62): > 100 µM (inactive) | GI50 (MOLT-4): > 100 µM (inactive) | GI50 (OVCAR-3): > 100 µM (inactive) | GI50 (U-251): 10.4 µM (inactive) | GI50 (ACHN): > 100 µM (inactive) | GI50 (RPMI-8226): > 100 µM (inactive) | GI50 (NCI-H522): > 100 µM (inactive) | GI50 (MDA-MB-231): > 100 µM (inactive) | GI50 (PC-3): > 100 µM (inactive) | GI50 (SK-MEL-5): 57.8 µM (inactive) | GI50 (SN12C): > 100 µM (inactive) | GI50 (CCRF-CEM): > 100 µM (inactive) | GI50 (K562): > 100 µM (inactive)

NC(C(=O)O)c1cc(O)no1 (stereo not drawn)
GI50 (EKVX): > 100 µM (inactive) | GI50 (MDA-MB-435): > 100 µM (inactive) | GI50 (SW-620): > 100 µM (inactive) | GI50 (CAKI-1): > 100 µM (inactive) | GI50 (KM12): > 100 µM (inactive) | GI50 (HOP-62): > 100 µM (inactive) | GI50 (MOLT-4): > 100 µM (inactive) | GI50 (OVCAR-3): > 100 µM (inactive) | GI50 (U-251): > 100 µM (inactive) | GI50 (ACHN): > 100 µM (inactive) | GI50 (RPMI-8226): > 100 µM (inactive) | GI50 (NCI-H522): > 100 µM (inactive) | GI50 (MDA-MB-231): > 100 µM (inactive) | GI50 (PC-3): > 100 µM (inactive) | GI50 (SK-MEL-5): > 100 µM (inactive) | GI50 (SN12C): > 100 µM (inactive) | GI50 (CCRF-CEM): > 100 µM (inactive) | GI50 (K562): > 100 µM (inactive)
